ChEMBL document CHEMBL3734719, “Discovery of highly potent triazoleantifungal agents with piperidine-oxadiazole side chains” (2015)
Converted amounts (≈) assume the structure as drawn.

What was measured:
Assay type in all cases: functional
Candida albicans [1] = test: Antifungal activity against Candida albicans after 48 hrs by spectrophotometry
Candida parapsilosis = test: Antifungal activity against Candida parapsilosis after 48 hrs by spectrophotometry; settings: Lodderomyces parapsilosis
Cryptococcus neoformans = test: Antifungal activity against Cryptococcus neoformans after 48 hrs by spectrophotometry
Nakaseomyces glabratus = test: Antifungal activity against Candida glabrata after 48 hrs by spectrophotometry
Aspergillus fumigatus = test: Antifungal activity against Aspergillus fumigatus after 48 hrs by spectrophotometry
Trichophyton rubrum = test: Antifungal activity against Trichophyton rubrum after 48 hrs by spectrophotometry
Nannizzia gypsea = test: Antifungal activity against Microsporum gypseum after 48 hrs by spectrophotometry
Candida albicans [2] = test: Antifungal activity against fluconazole-resistant Candida albicans 103 after 48 hrs by spectrophotometry; settings: Candida albicans, 103, 48 h
Candida albicans [3] = test: Antifungal activity against fluconazole-resistant Candida albicans 805 after 48 hrs by spectrophotometry; settings: Candida albicans, 805, 48 h
Candida albicans [4] = test: Antifungal activity against fluconazole-resistant Candida albicans 0710922 after 48 hrs by spectrophotometry; settings: Candida albicans, 0710922, 48 h

| Structure (SMILES) | MIC80 (Candida albicans [1]) | MIC80 (Candida parapsilosis) | MIC80 (Cryptococcus neoformans) | MIC80 (Nakaseomyces glabratus) | MIC80 (Aspergillus fumigatus) | MIC80 (Trichophyton rubrum) | MIC80 (Nannizzia gypsea) | MIC50 (Candida albicans [2]) | MIC80 (Candida albicans [2]) | MIC50 (Candida albicans [3]) | MIC80 (Candida albicans [3]) | MIC50 (Candida albicans [4]) | MIC80 (Candida albicans [4]) |
| --- | --- | --- | --- | --- | --- | --- | --- | --- | --- | --- | --- | --- | --- |
| OC(CN1CCC(c2nnc(-c3c(F)cccc3F)o2)CC1)(Cn1cncn1)c1ccc(F)cc1F (centres undefined) | 0.063 µg/mL (≈ 0.125 µM) | 0.5 µg/mL (≈ 0.995 µM) | ≤ 0.125 µg/mL | 0.5 µg/mL (≈ 0.995 µM) | 0.5 µg/mL (≈ 0.995 µM) | 2 µg/mL (≈ 3.98 µM) | 2 µg/mL (≈ 3.98 µM) | – | – | – | – | – | – |
| OC(CN1CCC(c2nc(-c3cccs3)no2)CC1)(Cn1cncn1)c1ccc(F)cc1F (centres undefined) | 0.063 µg/mL (≈ 0.133 µM) | 2 µg/mL (≈ 4.23 µM) | 1 µg/mL (≈ 2.12 µM) | 2 µg/mL (≈ 4.23 µM) | 2 µg/mL (≈ 4.23 µM) | 1 µg/mL (≈ 2.12 µM) | 2 µg/mL (≈ 4.23 µM) | – | – | – | – | – | – |
| OC(CN1CCC(c2nnc(-c3ccncc3)o2)CC1)(Cn1cncn1)c1ccc(F)cc1F (centres undefined) | 2 µg/mL (≈ 4.28 µM) | 16 µg/mL (≈ 34.2 µM) | 4 µg/mL (≈ 8.56 µM) | 16 µg/mL (≈ 34.2 µM) | 16 µg/mL (≈ 34.2 µM) | 32 µg/mL (≈ 68.5 µM) | 4 µg/mL (≈ 8.56 µM) | – | – | – | – | – | – |
| OC(CN1CCC(c2nnc(-c3ccccc3F)o2)CC1)(Cn1cncn1)c1ccc(F)cc1F (centres undefined) | 0.125 µg/mL (≈ 0.258 µM) | 0.5 µg/mL (≈ 1.03 µM) | ≤ 0.125 µg/mL | 1 µg/mL (≈ 2.06 µM) | 1 µg/mL (≈ 2.06 µM) | 2 µg/mL (≈ 4.13 µM) | 2 µg/mL (≈ 4.13 µM) | – | – | – | – | – | – |
| Cc1ccccc1-c1nnc(C2CCN(CC(O)(Cn3cncn3)c3ccc(F)cc3F)CC2)o1 (centres undefined) | 0.125 µg/mL (≈ 0.26 µM) | 4 µg/mL (≈ 8.32 µM) | 4 µg/mL (≈ 8.32 µM) | 8 µg/mL (≈ 16.6 µM) | 8 µg/mL (≈ 16.6 µM) | 16 µg/mL (≈ 33.3 µM) | 16 µg/mL (≈ 33.3 µM) | – | – | – | – | – | – |
| COc1cccc(-c2noc(C3CCN(CC(O)(Cn4cncn4)c4ccc(F)cc4F)CC3)n2)c1 (centres undefined) | 1 µg/mL (≈ 2.01 µM) | 4 µg/mL (≈ 8.06 µM) | 2 µg/mL (≈ 4.03 µM) | 4 µg/mL (≈ 8.06 µM) | 4 µg/mL (≈ 8.06 µM) | 4 µg/mL (≈ 8.06 µM) | 4 µg/mL (≈ 8.06 µM) | – | – | – | – | – | – |
| OC(CN1CCC(c2nnc(-c3ccc(F)cc3)o2)CC1)(Cn1cncn1)c1ccc(F)cc1F (centres undefined) | 0.063 µg/mL (≈ 0.13 µM) | 0.5 µg/mL (≈ 1.03 µM) | ≤ 0.125 µg/mL | 1 µg/mL (≈ 2.06 µM) | 1 µg/mL (≈ 2.06 µM) | 2 µg/mL (≈ 4.13 µM) | 2 µg/mL (≈ 4.13 µM) | – | – | – | – | – | – |
| OC(CN1CCC(c2nnc(-c3ccccc3)o2)CC1)(Cn1cncn1)c1ccc(F)cc1F (centres undefined) | 0.125 µg/mL (≈ 0.268 µM) | 0.5 µg/mL (≈ 1.07 µM) | 0.25 µg/mL (≈ 0.536 µM) | 2 µg/mL (≈ 4.29 µM) | 2 µg/mL (≈ 4.29 µM) | 1 µg/mL (≈ 2.14 µM) | 1 µg/mL (≈ 2.14 µM) | – | – | – | – | – | – |
| CCc1ccc(-c2nnc(C3CCN(CC(O)(Cn4cncn4)c4ccc(F)cc4F)CC3)o2)cc1 (centres undefined) | 0.5 µg/mL (≈ 1.01 µM) | 2 µg/mL (≈ 4.04 µM) | 2 µg/mL (≈ 4.04 µM) | 4 µg/mL (≈ 8.09 µM) | 4 µg/mL (≈ 8.09 µM) | 4 µg/mL (≈ 8.09 µM) | 4 µg/mL (≈ 8.09 µM) | – | – | – | – | – | – |
| OC(CN1CCC(c2nc(-c3ccsc3)no2)CC1)(Cn1cncn1)c1ccc(F)cc1F (centres undefined) | 0.5 µg/mL (≈ 1.06 µM) | 4 µg/mL (≈ 8.47 µM) | 2 µg/mL (≈ 4.23 µM) | 4 µg/mL (≈ 8.47 µM) | 4 µg/mL (≈ 8.47 µM) | 4 µg/mL (≈ 8.47 µM) | 4 µg/mL (≈ 8.47 µM) | – | – | – | – | – | – |
| Cc1ccc(-c2noc(C3CCN(CC(O)(Cn4cncn4)c4ccc(F)cc4F)CC3)n2)cc1 (centres undefined) | 0.5 µg/mL (≈ 1.04 µM) | 2 µg/mL (≈ 4.16 µM) | 4 µg/mL (≈ 8.32 µM) | 4 µg/mL (≈ 8.32 µM) | 4 µg/mL (≈ 8.32 µM) | 2 µg/mL (≈ 4.16 µM) | 8 µg/mL (≈ 16.6 µM) | – | – | – | – | – | – |
| OC(Cn1cncn1)(Cn1cncn1)c1ccc(F)cc1F [FLUCONAZOLE] | 0.25 µg/mL (≈ 0.816 µM) | 2 µg/mL (≈ 6.53 µM) | 0.25 µg/mL (≈ 0.816 µM) | 4 µg/mL (≈ 13.1 µM) | 4 µg/mL (≈ 13.1 µM) | 2 µg/mL (≈ 6.53 µM) | 32 µg/mL (≈ 104 µM) | 256 µg/mL (≈ 836 µM) | > 1020 µg/mL | 256 µg/mL (≈ 836 µM) | > 1020 µg/mL | 512 µg/mL (≈ 1670 µM) | > 1020 µg/mL |
| OC(CN1CCC(c2nc(-c3cccnc3)no2)CC1)(Cn1cncn1)c1ccc(F)cc1F (centres undefined) | 0.063 µg/mL (≈ 0.135 µM) | 0.25 µg/mL (≈ 0.535 µM) | 0.125 µg/mL (≈ 0.267 µM) | 0.125 µg/mL (≈ 0.267 µM) | 0.125 µg/mL (≈ 0.267 µM) | 1 µg/mL (≈ 2.14 µM) | 0.5 µg/mL (≈ 1.07 µM) | – | – | – | – | – | – |
| OC(CN1CCC(c2nc(-c3ccc(C(F)(F)F)cc3)no2)CC1)(Cn1cncn1)c1ccc(F)cc1F (centres undefined) | 0.5 µg/mL (≈ 0.935 µM) | 4 µg/mL (≈ 7.48 µM) | 2 µg/mL (≈ 3.74 µM) | 2 µg/mL (≈ 3.74 µM) | 2 µg/mL (≈ 3.74 µM) | 4 µg/mL (≈ 7.48 µM) | 2 µg/mL (≈ 3.74 µM) | – | – | – | – | – | – |
| OC(CN1CCC(c2nnc(-c3cccnc3)o2)CC1)(Cn1cncn1)c1ccc(F)cc1F (centres undefined) | 0.125 µg/mL (≈ 0.267 µM) | 1 µg/mL (≈ 2.14 µM) | 0.5 µg/mL (≈ 1.07 µM) | 4 µg/mL (≈ 8.56 µM) | 4 µg/mL (≈ 8.56 µM) | 4 µg/mL (≈ 8.56 µM) | 4 µg/mL (≈ 8.56 µM) | – | – | – | – | – | – |
| OC(CN1CCC(c2nnc(-c3ccco3)o2)CC1)(Cn1cncn1)c1ccc(F)cc1F (centres undefined) | 0.125 µg/mL (≈ 0.274 µM) | 0.5 µg/mL (≈ 1.1 µM) | ≤ 0.125 µg/mL | 0.5 µg/mL (≈ 1.1 µM) | 0.5 µg/mL (≈ 1.1 µM) | 2 µg/mL (≈ 4.38 µM) | 4 µg/mL (≈ 8.76 µM) | – | – | – | – | – | – |
| OC(CN1CCC(c2nc(-c3ccco3)no2)CC1)(Cn1cncn1)c1ccc(F)cc1F (centres undefined) | 0.063 µg/mL (≈ 0.138 µM) | 1 µg/mL (≈ 2.19 µM) | 0.5 µg/mL (≈ 1.1 µM) | 1 µg/mL (≈ 2.19 µM) | 1 µg/mL (≈ 2.19 µM) | 2 µg/mL (≈ 4.38 µM) | 2 µg/mL (≈ 4.38 µM) | – | – | – | – | – | – |
| O=[N+]([O-])c1ccc(-c2nnc(C3CCN(CC(O)(Cn4cncn4)c4ccc(F)cc4F)CC3)o2)cc1 (centres undefined) | 0.25 µg/mL (≈ 0.489 µM) | 2 µg/mL (≈ 3.91 µM) | 1 µg/mL (≈ 1.96 µM) | 4 µg/mL (≈ 7.82 µM) | 4 µg/mL (≈ 7.82 µM) | 2 µg/mL (≈ 3.91 µM) | 2 µg/mL (≈ 3.91 µM) | – | – | – | – | – | – |
| OC(CN1CCC(c2nc(-c3ccc(F)cc3)no2)CC1)(Cn1cncn1)c1ccc(F)cc1F (centres undefined) | 0.5 µg/mL (≈ 1.03 µM) | 2 µg/mL (≈ 4.13 µM) | 1 µg/mL (≈ 2.06 µM) | 2 µg/mL (≈ 4.13 µM) | 2 µg/mL (≈ 4.13 µM) | 4 µg/mL (≈ 8.26 µM) | 1 µg/mL (≈ 2.06 µM) | – | – | – | – | – | – |
| COc1ccc(-c2nnc(C3CCN(CC(O)(Cn4cncn4)c4ccc(F)cc4F)CC3)o2)cc1 (centres undefined) | 0.063 µg/mL (≈ 0.127 µM) | 1 µg/mL (≈ 2.01 µM) | 0.5 µg/mL (≈ 1.01 µM) | 2 µg/mL (≈ 4.03 µM) | 2 µg/mL (≈ 4.03 µM) | 1 µg/mL (≈ 2.01 µM) | 1 µg/mL (≈ 2.01 µM) | – | – | – | – | – | – |
| OC(CN1CCC(c2nc(-c3ccc(C(F)(F)F)cc3F)no2)CC1)(Cn1cncn1)c1ccc(F)cc1F (centres undefined) | 1 µg/mL (≈ 1.81 µM) | 2 µg/mL (≈ 3.62 µM) | 2 µg/mL (≈ 3.62 µM) | 4 µg/mL (≈ 7.24 µM) | 4 µg/mL (≈ 7.24 µM) | 1 µg/mL (≈ 1.81 µM) | 0.5 µg/mL (≈ 0.905 µM) | – | – | – | – | – | – |
| OC(CN1CCC(c2nnc(-c3ccc(Cl)cc3)o2)CC1)(Cn1cncn1)c1ccc(F)cc1F (centres undefined) | 0.5 µg/mL (≈ 0.998 µM) | 4 µg/mL (≈ 7.99 µM) | 1 µg/mL (≈ 2 µM) | 8 µg/mL (≈ 16 µM) | 8 µg/mL (≈ 16 µM) | 8 µg/mL (≈ 16 µM) | 64 µg/mL (≈ 128 µM) | – | – | – | – | – | – |
| Cc1cccc(-c2nnc(C3CCN(CC(O)(Cn4cncn4)c4ccc(F)cc4F)CC3)o2)c1 (centres undefined) | 0.25 µg/mL (≈ 0.52 µM) | 2 µg/mL (≈ 4.16 µM) | 1 µg/mL (≈ 2.08 µM) | 2 µg/mL (≈ 4.16 µM) | 2 µg/mL (≈ 4.16 µM) | 2 µg/mL (≈ 4.16 µM) | 0.5 µg/mL (≈ 1.04 µM) | – | – | – | – | – | – |
| OC(CN1CCC(c2nnc(-c3cccc4ccccc34)o2)CC1)(Cn1cncn1)c1ccc(F)cc1F (centres undefined) | 1 µg/mL (≈ 1.94 µM) | 8 µg/mL (≈ 15.5 µM) | 4 µg/mL (≈ 7.74 µM) | 8 µg/mL (≈ 15.5 µM) | 8 µg/mL (≈ 15.5 µM) | 4 µg/mL (≈ 7.74 µM) | 8 µg/mL (≈ 15.5 µM) | – | – | – | – | – | – |
